Data: ChEMBL document CHEMBL1201862, “PubChem BioAssay data set” (2004)
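Dose response: 5 concentrations. Exposure: 48 h. Format: 96-well plates. Endpoint: linear interpolation; highest concentration if not reached. At the GI50, growth is halved.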 Activity calls are given as the source filed them. Cut-off read from the data, not from the text of the source: active = GI50 up to about 1.1 µM and inactive = higher.

What was measured:
Experiment in all cases: growth of human tumour cells (NCI), 48 h
SF-268 = test system: SF-268
SNB-75 = test system: SNB-75
OVCAR-5 = test system: OVCAR-5
SK-MEL-28 = test system: SK-MEL-28
HCT-116 = test system: HCT-116
KM12 = test system: KM12
CCRF-CEM = test system: CCRF-CEM
CAKI-1 = test system: CAKI-1
OVCAR-4 = test system: OVCAR-4
LXFL 529 = test system: LXFL 529
SR = test system: SR
NCI-H23 = test system: NCI-H23
TK-10 = test system: TK-10
DLD-1 = test system: DLD-1
M14 = test system: M14
NCI-H460 = test system: NCI-H460
UACC-62 = test system: UACC-62
A498 = test system: A498
UACC-257 = test system: UACC-257
SF-295 = test system: SF-295
SNB-19 = test system: SNB-19
RXF 393 = test system: RXF 393
T47D = test system: T47D
786-0 = test system: 786-0
PC-3 = test system: PC-3
MDA-N = test system: MDA-N
A549 = test system: A549
Hs-578T = test system: Hs-578T
SN12C = test system: SN12C
LOX IMVI = test system: LOX IMVI
HCT-15 = test system: HCT-15
ACHN = test system: ACHN
K562 = test system: K562
NCI/ADR-RES = test system: NCI/ADR-RES
HOP-62 = test system: HOP-62
UO-31 = test system: UO-31
NCI-H226 = test system: NCI-H226
OVCAR-3 = test system: OVCAR-3
HOP-92 = test system: HOP-92
RPMI-8226 = test system: RPMI-8226
HOP-18 = test system: HOP-18
Malme-3M = test system: Malme-3M
MOLT-4 = test system: MOLT-4
IGROV-1 = test system: IGROV-1
COLO 205 = test system: COLO 205
SK-MEL-2 = test system: SK-MEL-2
DMS-114 = test system: DMS-114
HT-29 = test system: HT-29
SNB-78 = test system: SNB-78
MCF7 = test system: MCF7
MDA-MB-435 = test system: MDA-MB-435
EKVX = test system: EKVX
SK-OV-3 = test system: SK-OV-3
DMS-273 = test system: DMS-273
M19-MEL = test system: M19-MEL
HCC 2998 = test system: HCC 2998
HL-60 = test system: HL-60
MDA-MB-231 = test system: MDA-MB-231
KM-20L2 = test system: KM-20L2
U-251 = test system: U-251
SF-539 = test system: SF-539
SW-620 = test system: SW-620
DU-145 = test system: DU-145
OVCAR-8 = test system: OVCAR-8
NCI-H522 = test system: NCI-H522
BT-549 = test system: BT-549
SK-MEL-5 = test system: SK-MEL-5

Which results are given for `O=C1C=C(NCCc2ccccc2)c2ccccc2C1=O`?
GI50 (SF-268): 7.24 µM (inactive); GI50 (SNB-75): 1.69 µM (inactive); GI50 (OVCAR-5): 1.98 µM (inactive); GI50 (SK-MEL-28): 1.87 µM (inactive); GI50 (HCT-116): 4.95 µM (inactive); GI50 (KM12): 2.63 µM (inactive); GI50 (CCRF-CEM): 12.3 µM (inactive); GI50 (CAKI-1): 9.48 µM (inactive); GI50 (OVCAR-4): 3.93 µM (inactive); GI50 (LXFL 529): 5.86 µM (inactive); GI50 (SR): 5.94 µM (inactive); GI50 (NCI-H23): 2.33 µM (inactive); GI50 (TK-10): 14.2 µM (inactive); GI50 (DLD-1): 6.03 µM (inactive); GI50 (M14): 1.59 µM (inactive); GI50 (NCI-H460): 1.57 µM (inactive); GI50 (UACC-62): 1.79 µM (inactive); GI50 (A498): 3.71 µM (inactive); GI50 (UACC-257): 1.53 µM (inactive); GI50 (SF-295): 1.98 µM (inactive); GI50 (SNB-19): 2.81 µM (inactive); GI50 (RXF 393): 6.65 µM (inactive); GI50 (T47D): 16.7 µM (inactive); GI50 (786-0): 3.64 µM (inactive); GI50 (PC-3): 5.25 µM (inactive); GI50 (MDA-N): 1.78 µM (inactive); GI50 (A549): 1.95 µM (inactive); GI50 (Hs-578T): 2.08 µM (inactive); GI50 (SN12C): 1.85 µM (inactive); GI50 (LOX IMVI): 1.43 µM (inactive); GI50 (HCT-15): 1.67 µM; GI50 (ACHN): 2.82 µM (inactive); GI50 (K562): 4.34 µM (inactive); GI50 (NCI/ADR-RES): 4.11 µM (inactive); GI50 (HOP-62): 2.55 µM (inactive); GI50 (UO-31): 3.72 µM (inactive); GI50 (NCI-H226): 2.06 µM (inactive); GI50 (OVCAR-3): 1.44 µM (inactive); GI50 (HOP-92): 12.5 µM (inactive); GI50 (RPMI-8226): 14.8 µM (inactive); GI50 (HOP-18): 1.63 µM (inactive); GI50 (Malme-3M): 1.06 µM (active); GI50 (MOLT-4): 7.33 µM (inactive); GI50 (IGROV-1): 7.28 µM (inactive); GI50 (COLO 205): 1.83 µM (inactive); GI50 (SK-MEL-2): 1.91 µM (inactive); GI50 (DMS-114): 1.92 µM (inactive); GI50 (HT-29): 3.49 µM (inactive); GI50 (SNB-78): 16.6 µM (inactive); GI50 (MCF7): 1.67 µM (inactive); GI50 (MDA-MB-435): 0.925 µM (active); GI50 (EKVX): 5.78 µM (inactive); GI50 (SK-OV-3): 13.9 µM (inactive); GI50 (DMS-273): 2.77 µM (inactive); GI50 (M19-MEL): 0.276 µM (active); GI50 (HCC 2998): 1.79 µM (inactive); GI50 (HL-60): 1.69 µM (inactive); GI50 (MDA-MB-231): 5.86 µM (inactive); GI50 (KM-20L2): 6.95 µM (inactive); GI50 (U-251): 4.75 µM (inactive); GI50 (SF-539): 2.19 µM (inactive); GI50 (SW-620): 1.85 µM (inactive); GI50 (DU-145): 1.75 µM (inactive); GI50 (OVCAR-8): 6.38 µM (inactive); GI50 (NCI-H522): 1.71 µM (inactive); GI50 (BT-549): 2.23 µM (inactive); GI50 (SK-MEL-5): 1.09 µM (active)

For `CCCCN(CCCC)/C(=N\C#N)NCc1ccccc1`, which GI50 (SF-268) is on record?
Its GI50 is 29.4 µM (inactive).

And the GI50 (SNB-75)?
Its GI50 is 28.1 µM (inactive).

What about the GI50 (OVCAR-5) of the same compound?
Its GI50 is 26.4 µM (inactive).

And the GI50 (HCT-116)?
The GI50 was 27.1 µM (inactive).

What about the GI50 (KM12) of the same compound?
Its GI50 is 21.3 µM (inactive).

And the GI50 (CCRF-CEM)?
The GI50 was 12.1 µM (inactive).

And the GI50 (CAKI-1)?
Its GI50 is 22.5 µM (inactive).

What about the GI50 (OVCAR-4) of the same compound?
The GI50 was 28.6 µM (inactive).

What about the GI50 (LXFL 529) of the same compound?
The GI50 was 15.4 µM (inactive).

And the GI50 (NCI-H23)?
The GI50 was 27.1 µM (inactive).

What about the GI50 (TK-10) of the same compound?
The GI50 was 25.1 µM (inactive).

And the GI50 (DLD-1)?
Its GI50 is 23.8 µM (inactive).

And the GI50 (M14)?
Its GI50 is 22.3 µM (inactive).

What about the GI50 (NCI-H460) of the same compound?
Its GI50 is 13.9 µM (inactive).

What about the GI50 (UACC-62) of the same compound?
Its GI50 is 16.3 µM (inactive).

And the GI50 (A498)?
The GI50 was 18.1 µM (inactive).

What about the GI50 (UACC-257) of the same compound?
Its GI50 is 27.4 µM (inactive).

And the GI50 (SF-295)?
The GI50 was 14.3 µM (inactive).

And the GI50 (SNB-19)?
The GI50 was 19.6 µM (inactive).

What about the GI50 (RXF 393) of the same compound?
Its GI50 is 22.5 µM (inactive).

What about the GI50 (786-0) of the same compound?
Its GI50 is 19 µM (inactive).

What about the GI50 (A549) of the same compound?
The GI50 was 25.8 µM (inactive).

What about the GI50 (SN12C) of the same compound?
Its GI50 is 18.8 µM (inactive).

What about the GI50 (LOX IMVI) of the same compound?
Its GI50 is 16.5 µM (inactive).

What about the GI50 (HCT-15) of the same compound?
Its GI50 is 15 µM.

And the GI50 (ACHN)?
Its GI50 is 26.2 µM (inactive).

And the GI50 (K562)?
Its GI50 is 7.43 µM (inactive).

And the GI50 (HOP-62)?
Its GI50 is 28.4 µM (inactive).

And the GI50 (UO-31)?
The GI50 was 11.2 µM (inactive).

And the GI50 (NCI-H226)?
Its GI50 is 24.3 µM (inactive).

What about the GI50 (OVCAR-3) of the same compound?
Its GI50 is 13.6 µM (inactive).

What about the GI50 (HOP-92) of the same compound?
Its GI50 is 14.4 µM (inactive).

And the GI50 (RPMI-8226)?
The GI50 was 13.7 µM (inactive).

And the GI50 (HOP-18)?
The GI50 was 46.6 µM (inactive).

And the GI50 (Malme-3M)?
The GI50 was 32.4 µM (inactive).

What about the GI50 (IGROV-1) of the same compound?
Its GI50 is 24.8 µM (inactive).

And the GI50 (COLO 205)?
Its GI50 is 16.4 µM (inactive).

What about the GI50 (SK-MEL-2) of the same compound?
Its GI50 is 21.7 µM (inactive).

And the GI50 (HT-29)?
The GI50 was 16.5 µM (inactive).

And the GI50 (SNB-78)?
Its GI50 is 26.5 µM (inactive).

And the GI50 (EKVX)?
Its GI50 is 19.6 µM (inactive).

What about the GI50 (SK-OV-3) of the same compound?
The GI50 was 20.7 µM (inactive).

And the GI50 (DMS-273)?
Its GI50 is 24.6 µM (inactive).

What about the GI50 (M19-MEL) of the same compound?
Its GI50 is 19 µM (inactive).

What about the GI50 (HCC 2998) of the same compound?
Its GI50 is 15.5 µM (inactive).

And the GI50 (HL-60)?
Its GI50 is 10.5 µM (inactive).

What about the GI50 (KM-20L2) of the same compound?
The GI50 was 22 µM (inactive).

What about the GI50 (U-251) of the same compound?
The GI50 was 15.3 µM (inactive).

What about the GI50 (SF-539) of the same compound?
The GI50 was 23.8 µM (inactive).

What about the GI50 (SW-620) of the same compound?
The GI50 was 15.8 µM (inactive).

What about the GI50 (OVCAR-8) of the same compound?
The GI50 was 26.1 µM (inactive).

What about the GI50 (NCI-H522) of the same compound?
The GI50 was 3.95 µM (inactive).

And the GI50 (SK-MEL-5)?
Its GI50 is 21.9 µM (inactive).
